Results on 15 compounds are retold here after patent US20240239767A1 (AstraZeneca AB, priority 2022, published 2024).

Experiment [1] concerns the target T1, PCSK9 (Homo sapiens, UniProt Q8NBP7, G670E/V474I). The experiment in a line: biochemical.
Target sequence in this assay (Q8NBP7 with tags, fused parts or gaps V474I/G670E): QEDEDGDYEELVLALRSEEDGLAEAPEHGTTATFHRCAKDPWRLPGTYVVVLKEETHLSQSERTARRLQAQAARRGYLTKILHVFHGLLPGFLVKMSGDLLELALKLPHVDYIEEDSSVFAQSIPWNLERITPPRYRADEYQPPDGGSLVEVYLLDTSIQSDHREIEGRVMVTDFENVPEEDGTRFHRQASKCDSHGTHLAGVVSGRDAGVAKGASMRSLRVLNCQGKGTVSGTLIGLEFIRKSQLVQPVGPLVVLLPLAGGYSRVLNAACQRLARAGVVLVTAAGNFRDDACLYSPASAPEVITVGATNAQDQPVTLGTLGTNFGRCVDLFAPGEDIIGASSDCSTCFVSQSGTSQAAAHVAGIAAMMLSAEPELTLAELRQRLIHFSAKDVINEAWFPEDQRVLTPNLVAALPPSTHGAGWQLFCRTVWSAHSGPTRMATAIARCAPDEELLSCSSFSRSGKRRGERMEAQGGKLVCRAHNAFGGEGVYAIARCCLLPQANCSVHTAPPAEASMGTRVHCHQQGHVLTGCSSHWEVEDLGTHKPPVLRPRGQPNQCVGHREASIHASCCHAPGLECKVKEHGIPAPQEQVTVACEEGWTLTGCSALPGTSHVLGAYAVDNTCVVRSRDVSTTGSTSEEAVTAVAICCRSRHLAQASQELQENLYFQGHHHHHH
The target in experiment [2] is GSK3b (Glycogen synthase kinase-3 beta) (Homo sapiens, UniProt P49841). As to the kind of experiment: Assay 6 - GSK3b assay (ThermoFisher, FRET Z-Lyte). The class given is biochemical. To be noted: geometric mean; ATP Conc: 10.000 μM; read-out: Assay 6 (GSK3B FRET-Z-Lyte CR) GMean IC50 (μM) ATP Conc: 10.000. The essentials:
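Z-Lyte FRET kinase assay: 0.22-0.92 ng GSK3β with 2 μM Ser/Thr 09 peptide in 50 mM HEPES pH 7.5, 10 mM MgCl2, 1 mM EGTA, 0.01% BRIJ-35, 60 min at room temperature, then 60 min development. Compounds in 1% DMSO, 10-point 3-fold dilutions from 10 μM; sigmoidal dose-response fit.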

Experiment [3] has as its target T2, potassium ion channel hERG (human Ether-á-go-go-Related Gene) (Homo sapiens, UniProt Q12809).
T2 construct: expressed in transfected cells; host or cells: Chinese hamster ovary K1 (CHO)
As to the kind of experiment: Assay 5 - hERG assay (SyncroPatch 384PE patch clamp, CHO cells). The class given is cell-based. The following applies: geometric mean, CHO cells over-expressing hERG, read-out: Assay 5 (hERG Hu CHO IF EPh CR-Syncro) GMean IC50. A digest of the protocol:
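Automated whole-cell patch clamp at room temperature on CHO-K1 cells over-expressing hERG, using K-fluoride/escin internal solution (pH 7.2) and NMDG-containing external solution (pH 7.4). Compounds were tested in a 6-point cumulative format, 0.33% final DMSO. Wells accepted only with seal >30 MegaOhm, Z′>0.4 and current >0.2 nA.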
(The hERG channel carries a current that helps repolarise heart muscle cells.)

Experiment [4] concerns the target T1, PCSK9. The experiment in a line: cell-based.
Target sequence in this assay (Q8NBP7 31-152): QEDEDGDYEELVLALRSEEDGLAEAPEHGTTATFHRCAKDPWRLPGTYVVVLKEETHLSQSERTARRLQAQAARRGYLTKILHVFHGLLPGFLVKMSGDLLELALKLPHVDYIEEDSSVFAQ
Target sequence in this assay (Q8NBP7 153-692 V474I/G670E): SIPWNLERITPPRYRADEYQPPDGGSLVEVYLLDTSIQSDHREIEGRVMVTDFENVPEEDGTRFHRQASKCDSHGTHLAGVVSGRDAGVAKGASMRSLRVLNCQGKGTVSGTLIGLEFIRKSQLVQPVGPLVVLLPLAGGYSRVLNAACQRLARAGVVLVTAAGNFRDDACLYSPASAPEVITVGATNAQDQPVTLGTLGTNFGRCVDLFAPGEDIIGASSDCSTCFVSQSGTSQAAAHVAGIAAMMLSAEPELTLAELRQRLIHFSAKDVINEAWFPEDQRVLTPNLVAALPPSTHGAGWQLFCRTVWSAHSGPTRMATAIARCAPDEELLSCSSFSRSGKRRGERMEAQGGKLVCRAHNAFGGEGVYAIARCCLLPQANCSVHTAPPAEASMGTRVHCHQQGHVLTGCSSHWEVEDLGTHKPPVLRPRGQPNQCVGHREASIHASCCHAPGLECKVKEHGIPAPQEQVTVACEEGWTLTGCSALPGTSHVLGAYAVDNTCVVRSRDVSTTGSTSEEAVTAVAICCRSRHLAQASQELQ
In experiment [5] the target is PCSK9 (Homo sapiens, UniProt Q8NBP7). The experiment in a line: Assay 2 - Biophysical human PCSK9 assay (SPR, Biacore). The class given is binding. More on the design: biotinylated human PCSK9 (31-692)-Avi-His6. The following applies: geometric mean; SPR single-cycle kinetics, 30° C.; read-out: Assay 2 (PCSK9 BIAcore DBA CR) GMean Kd. The procedure: The SPR binding experiments were performed on a Biacore S200 optical biosensor unit at 30° C. A Series S Sensor Chip SA that is designed to bind biotinylated molecules for interaction analysis in Biacore systems was equilibrated at room temperature prior to use. The running buffer for protein tethering and subsequent ligand binding experiments was 10 mM HEPES pH 7.4, 150 mM NaCl, 0.05% (v/v) Tween 20 pH 7.4.
PCSK9 (Homo sapiens, UniProt Q8NBP7), sequence (Q8NBP7 31-692): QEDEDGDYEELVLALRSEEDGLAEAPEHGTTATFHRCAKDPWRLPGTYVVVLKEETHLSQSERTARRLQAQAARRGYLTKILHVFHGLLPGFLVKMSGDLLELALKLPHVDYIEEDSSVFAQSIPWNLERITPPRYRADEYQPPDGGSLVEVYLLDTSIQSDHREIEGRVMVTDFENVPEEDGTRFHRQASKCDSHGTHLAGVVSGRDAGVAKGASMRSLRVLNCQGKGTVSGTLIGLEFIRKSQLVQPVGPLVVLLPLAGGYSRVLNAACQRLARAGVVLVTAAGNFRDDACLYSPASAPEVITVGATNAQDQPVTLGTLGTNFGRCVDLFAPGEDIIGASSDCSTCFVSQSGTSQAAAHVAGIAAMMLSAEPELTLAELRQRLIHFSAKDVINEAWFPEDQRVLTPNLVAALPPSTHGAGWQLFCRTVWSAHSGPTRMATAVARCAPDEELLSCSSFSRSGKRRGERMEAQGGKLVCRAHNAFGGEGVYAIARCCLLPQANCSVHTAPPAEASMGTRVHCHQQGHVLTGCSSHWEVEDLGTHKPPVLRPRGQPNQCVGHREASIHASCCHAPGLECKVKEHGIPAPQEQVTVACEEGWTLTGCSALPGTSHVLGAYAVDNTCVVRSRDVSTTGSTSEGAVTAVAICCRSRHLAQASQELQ
For the surface tethering of PCSK9, biotinylated human PCSK9 (31-692)-Avi-His6 at a concentration of 0.5 mg/mL was used. Prior to the surface tethering, the surface was exposed to a solution of 50 mM NaOH, 500 mM NaCl via 3 consecutive injections of this solution with a contact time of 60 s and a flowrate of 10 μL min- to remove non-conjugated streptavidin. The PCSK9 protein was diluted to a concentration of 20 μg/mL using running buffer and injected with a contact time of 180-300 s and a flowrate of 10 μL min^−1 over a single flow channel (typically flow channel 2 or flow channel 4) with the aim to achieve protein capture levels of >5000 response units (RU). Remaining biotin binding sites were blocked via 2 consecutive injections of a 10 μM D-biotin solution in running buffer with a contact time of 60 s and a flowrate of 10 μL min^−1 over all flow-channels.
The binding experiments were all performed at a flow rate of 30 μL min^−1 and by employing the method of single-cycle kinetics. This approach involves the sequential injection of a compound concentration series without regeneration steps. A contact time between 90-150 s was selected, which was followed by a 40 min dissociation phase to allow for a proper estimation of the dissociation rate constant. Test compounds were delivered in DMSO at a concentration of 10 mM and a digital dispenser HP D300 was used to set up the compound concentration series using 6 concentrations. The tested concentrations have been 30, 100, 300, 1000, 3000 and 10000 nM. Prior to injecting any compound, the surfaces were equilibrated by injecting running buffer over them in three separate pulses. The data collection rate was set to 10 Hz.
The raw sensorgrams of the compound injections were first subjected to reference subtraction (subtracting the signal from flow channel 1 and/or 3 from the signal from channels 2 and/or 4 respectively) and then blank subtraction (subtracting the signal from injecting DMSO controls from the reference subtracted data). The resulting double-referenced sensorgrams were then fitted using a 1:1 binding interaction model using the manufactures software package to extract kinetic- and affinity data.

T2 sequence (Q12809 whole entry): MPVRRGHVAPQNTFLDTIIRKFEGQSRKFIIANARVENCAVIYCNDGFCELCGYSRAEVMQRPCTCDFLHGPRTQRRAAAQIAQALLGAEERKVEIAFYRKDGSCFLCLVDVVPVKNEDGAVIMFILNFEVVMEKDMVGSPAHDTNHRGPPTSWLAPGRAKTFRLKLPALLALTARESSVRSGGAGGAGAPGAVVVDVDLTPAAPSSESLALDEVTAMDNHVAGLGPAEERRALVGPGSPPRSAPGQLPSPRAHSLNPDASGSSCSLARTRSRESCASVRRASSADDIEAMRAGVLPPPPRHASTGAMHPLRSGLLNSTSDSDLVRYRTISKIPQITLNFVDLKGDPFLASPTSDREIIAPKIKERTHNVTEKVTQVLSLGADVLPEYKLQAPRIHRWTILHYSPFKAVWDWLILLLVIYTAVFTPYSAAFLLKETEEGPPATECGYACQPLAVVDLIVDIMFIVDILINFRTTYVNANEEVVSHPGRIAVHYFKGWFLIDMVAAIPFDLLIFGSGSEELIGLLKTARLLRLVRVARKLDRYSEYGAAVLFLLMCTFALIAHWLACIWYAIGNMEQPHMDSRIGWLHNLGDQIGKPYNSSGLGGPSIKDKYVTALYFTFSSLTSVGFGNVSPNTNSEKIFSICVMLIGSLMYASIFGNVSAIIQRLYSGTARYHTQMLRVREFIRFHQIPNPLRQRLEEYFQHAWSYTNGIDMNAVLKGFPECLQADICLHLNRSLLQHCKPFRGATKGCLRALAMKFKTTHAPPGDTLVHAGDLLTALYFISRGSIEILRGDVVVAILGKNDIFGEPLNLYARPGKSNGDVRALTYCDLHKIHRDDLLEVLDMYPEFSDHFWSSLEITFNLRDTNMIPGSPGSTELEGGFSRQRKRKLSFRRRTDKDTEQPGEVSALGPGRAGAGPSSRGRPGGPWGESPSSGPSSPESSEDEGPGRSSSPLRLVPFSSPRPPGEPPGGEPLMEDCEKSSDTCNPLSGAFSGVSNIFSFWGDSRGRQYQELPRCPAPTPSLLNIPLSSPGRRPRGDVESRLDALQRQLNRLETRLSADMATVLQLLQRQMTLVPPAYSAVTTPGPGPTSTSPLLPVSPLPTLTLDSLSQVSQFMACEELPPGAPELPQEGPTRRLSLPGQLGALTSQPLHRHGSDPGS
GSK3b (Glycogen synthase kinase-3 beta), sequence (P49841 whole entry): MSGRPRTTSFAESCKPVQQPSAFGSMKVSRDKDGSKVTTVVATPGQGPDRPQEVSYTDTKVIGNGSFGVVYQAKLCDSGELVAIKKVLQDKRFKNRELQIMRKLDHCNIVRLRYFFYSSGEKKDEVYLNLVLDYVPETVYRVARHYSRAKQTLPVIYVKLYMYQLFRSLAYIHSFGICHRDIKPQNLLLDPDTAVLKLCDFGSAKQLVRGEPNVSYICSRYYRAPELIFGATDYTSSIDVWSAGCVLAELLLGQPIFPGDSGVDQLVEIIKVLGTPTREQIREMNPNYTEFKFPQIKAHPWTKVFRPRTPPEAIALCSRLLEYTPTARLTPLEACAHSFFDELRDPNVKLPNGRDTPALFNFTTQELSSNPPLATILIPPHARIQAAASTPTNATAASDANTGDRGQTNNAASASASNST

As a reminder, the IC50 is the concentration that gives 50% inhibition. For orientation: Kd means a measure of binding affinity in units of concentration. Take `O=C(O)c1ccc(=O)n(-c2ccc(N[C@H]3CC[C@H](Nc4nc5cccnc5[nH]4)C3)nc2)c1` [Example 44, 6′-(((1S,3S)-3-((3H-Imidazo[4,5-b]pyridin-2-yl)amino)cyclopentyl)amino)-2-oxo-2H-[1,3′-bipyridine]-5-carboxylic acid]: the IC50 against PCSK9 [1] was 4.1 nM; in experiment [2], 7.91 µM; in experiment [3] it was more than 40000 nM; on PCSK9 [4], 82 nM. For the same compound, at PCSK9 [5], the Kd was found to be 4 nM.

On to `Cc1cccn(-c2ccc(N[C@H]3CC[C@H](Nc4nc5cccnc5[nH]4)C3)nc2)c1=O` [Example 40, 6′-(((1S,3S)-3-((3H-Imidazo[4,5-b]pyridin-2-yl)amino)cyclopentyl)amino)-3-methyl-2H-[1,3′-bipyridin]-2-one], for which the IC50 at PCSK9 [1] is 1.6 nM; in experiment [2], 8.15 µM; in experiment [3], more than 40000 nM; against PCSK9 [4] it was 90 nM. In addition, the Kd at PCSK9 [5] came out at 1 nM.

As to `CN1C(=O)CN(c2ccc(N[C@H]3CC[C@H](Nc4nc5cccnc5[nH]4)C3)nc2)C1=O` [Example 37, 1-(6-(((1S,3S)-3-((3H-Imidazo[4,5-b]pyridin-2-yl)amino)cyclopentyl)amino)pyridin-3-yl)-3-methylimidazolidine-2,4-dione], the half-inhibitory concentration (IC50) against PCSK9 [1] was 4.4 nM; in experiment [2], more than 10 µM; in experiment [3], more than 40000 nM; against PCSK9 [4], 127 nM. Moreover, the Kd at PCSK9 [5] came to 3 nM.

Turning to `O=c1c2sccc2ccn1-c1ccc(N[C@H]2CC[C@H](Nc3nc4cccnc4s3)C2)nc1` [Example 76, 6-(6-(((1S,3S)-3-(Thiazolo[5,4-b]pyridin-2-ylamino)cyclopentyl)amino)pyridin-3-yl)thieno[2,3-c]pyridin-7(6H)-one], the IC50 on PCSK9 [1] is 0.4 nM; in experiment [2] it was more than 10 µM; in experiment [3], 2570 nM; against PCSK9 [4] it was 55 nM. Moreover, the Kd on PCSK9 [5] stood at 0.1 nM.

Turning to `COc1cccn(-c2ccc(N[C@H]3CC[C@H](Nc4nc5cccnc5o4)C3)nc2)c1=O` [Example 12, 3-Methoxy-6′-(((1S,3S)-3-(oxazolo[5,4-b]pyridin-2-ylamino)cyclopentyl)amino)-2H-[1,3′-bipyridin]-2-one], the 50% inhibitory concentration (IC50) against PCSK9 [1] is 3.5 nM; in experiment [2] it was more than 10 µM; in experiment [3] it was more than 40000 nM; on PCSK9 [4], 158 nM. The Kd on PCSK9 [5] was determined as 3 nM.

For the compound `O=c1ccccn1-c1ccc(N[C@H]2CC[C@H](Nc3nc4cccnc4s3)C2)nc1` [Example 19, 6′-(((1S,3S)-3-(Thiazolo[5,4-b]pyridin-2-ylamino)cyclopentyl)amino)-2H-[1,3′-bipyridin]-2-one], the IC50 against PCSK9 [1] is 4.4 nM; in experiment [2], more than 10 µM; in experiment [3], more than 40000 nM; on PCSK9 [4], 157 nM. Also, the Kd at PCSK9 [5] was 4 nM.

Regarding `O=c1ccccn1-c1ccc(N[C@H]2CC[C@H](Nc3nc4cc(OC(F)F)cnc4[nH]3)C2)nc1` [Example 60, 6′-(((1S,3S)-3-((6-(Difluoromethoxy)-3H-imidazo[4,5-b]pyridin-2-yl)amino)cyclopentyl)amino)-2H-[1,3′-bipyridin]-2-one], the results for the IC50 (at PCSK9 [1]; in experiment [3]; against PCSK9 [4]) were 0.6 nM, 33000 nM and 41 nM, respectively. Also, the Kd on PCSK9 [5] worked out at 1 nM.

For the compound `O=c1ccccn1-c1ccc(N[C@H]2CC[C@H](Nc3nc4c(Br)ccnc4[nH]3)C2)nc1` [Example 73, 6′-(((1S,3S)-3-((7-Bromo-3H-imidazo[4,5-b]pyridin-2-yl)amino)cyclopentyl)amino)-2H-[1,3′-bipyridin]-2-one], the IC50 against PCSK9 [1] was 4.7 nM; in experiment [2] it was 0.192 µM; in experiment [3], more than 40000 nM; against PCSK9 [4], 280 nM. Besides, at PCSK9 [5], the Kd worked out at 5 nM.

`O=c1c(Cl)cccn1-c1ccc(N[C@H]2CC[C@H](Nc3nc4cccnc4s3)C2)nc1` [Example 24, 3-Chloro-6′-(((1S,3S)-3-(thiazolo[5,4-b]pyridin-2-ylamino)cyclopentyl)amino)-2H-[1,3′-bipyridin]-2-one]: the half-inhibitory concentration (IC50) against PCSK9 [1] was 0.7 nM; in experiment [2], more than 10 µM; in experiment [3], 13900 nM; at PCSK9 [4], 76 nM. On PCSK9 [5], the dissociation constant Kd is 0.1 nM.

Consider `N#Cc1cccn(-c2ccc(N[C@H]3CC[C@H](Nc4nc5cccnc5o4)C3)nc2)c1=O` [Example 15, 6′-(((1S,3S)-3-(Oxazolo[5,4-b]pyridin-2-ylamino)cyclopentyl)amino)-2-oxo-2H-[1,3′-bipyridine]-3-carbonitrile], for which the 50% inhibitory concentration (IC50) against PCSK9 [1] was 3.1 nM; in experiment [2] it was more than 10 µM; in experiment [3] it was more than 40000 nM; on PCSK9 [4] it was 76 nM. At PCSK9 [5], the Kd stood at 3 nM.

With `O=c1[nH]c2ccsc2c(=O)n1-c1ccc(N[C@H]2CC[C@H](Nc3nc4cccnc4s3)C2)nc1` [Example 83, 3-(6-(((1S,3S)-3-(Thiazolo[5,4-b]pyridin-2-ylamino)cyclopentyl)amino)pyridin-3-yl)thieno[3,2-d]pyrimidine-2,4(1H,3H)-dione], the IC50 at PCSK9 [1] is 0.5 nM; in experiment [2], more than 10 µM; in experiment [3] it was more than 40100 nM; against PCSK9 [4] it was 79 nM. Also, the Kd on PCSK9 [5] was found to be 0.1 nM.

With `O=c1ccccn1-c1ccc(N[C@H]2CC[C@H](Nc3nc4cc(CO)cnc4[nH]3)C2)nc1` [Example 61, 6′-(((1S,3S)-3-((6-(Hydroxymethyl)-3H-imidazo[4,5-b]pyridin-2-yl)amino)cyclopentyl)amino)-2H-[1,3′-bipyridin]-2-one], the IC50 is 8.9 nM on PCSK9 [1], more than 10 µM in experiment [2], more than 40000 nM in experiment [3] and 100 nM against PCSK9 [4]. Also, the Kd on PCSK9 [5] stood at 11 nM.

Consider `O=c1ccccn1-c1ccc(N[C@H]2CC[C@H](Nc3nc4cccnc4[nH]3)C2)nc1` [Example 46, 6′-(((1S,3S)-3-((3H-Imidazo[4,5-b]pyridin-2-yl)amino)cyclopentyl)amino)-2H-[1,3′-bipyridin]-2-one], for which the IC50 against PCSK9 [1] was 4.4 nM; in experiment [2] it was 0.425 µM; in experiment [3] it was more than 40000 nM; at PCSK9 [4], 102 nM. In addition, the Kd on PCSK9 [5] came out at 6 nM.

`Cn1c(=O)n(-c2ccc(N[C@H]3CC[C@H](Nc4nc5cccnc5o4)C3)nc2)c2ncccc21` [Example 18, 1-Methyl-3-(6-(((1S,3S)-3-(oxazolo[5,4-b]pyridin-2-ylamino)cyclopentyl)amino)pyridin-3-yl)-1,3-dihydro-2H-imidazo[4,5-b]pyridin-2-one]: the half-maximal inhibitory concentration (IC50) against PCSK9 [1] is 2.3 nM; in experiment [2], more than 10 µM; in experiment [3], more than 40000 nM; against PCSK9 [4], 52 nM. Moreover, the Kd on PCSK9 [5] came out at 3 nM.

On to `COc1cccn(-c2ccc(N[C@H]3CC[C@H](Nc4nc5cccnc5s4)C3)nc2)c1=O` [Example 21, 3-Methoxy-6′-(((1S,3S)-3-(thiazolo[5,4-b]pyridin-2-ylamino)cyclopentyl)amino)-2H-[1,3′-bipyridin]-2-one], for which the IC50 at PCSK9 [1] is 1.5 nM; in experiment [2], more than 10 µM; in experiment [3], more than 40000 nM; against PCSK9 [4] it was 100 nM. The dissociation constant (Kd) on PCSK9 [5] amounted to 0.5 nM.
